Source: patent publication US11685744B2, “CDK inhibitors and their use as pharmaceuticals” (Prelude Therapeutics, Incorporated, priority 2020, dated 2023)

Experiments:
CDK6/Cyclin D1 = CDK6/Cyclin D1 (Homo sapiens (Human), UniProt Q00534); test: CDK6/CyclinD1 enzymatic activity assay (TR-FRET); assay type: biochemical; settings: ATP 250 μM, read-out: CDK6_D1 IC50
In short: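 Insect-cell-expressed CDK6/Cyclin D1 (1 nM) phosphorylated ULight-4E-BP1 (100 nM) with 250 μM ATP in HEPES pH 7.4 buffer. After 20 min compound preincubation, reactions were started with 10 mM MgCl2 and run 60 min at 37 °C. EDTA-quenched samples were read by TR-FRET with Eu-anti-P-4E-BP1; IC50 from 9-dose 4-parameter fits.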

CDK4/Cyclin D1 = CDK4/Cyclin D1 (Homo sapiens (Human), UniProt P11802); test: CDK4/CyclinD1 enzymatic activity assay (TR-FRET); assay type: biochemical; settings: ATP 2 mM, read-out: CDK4_D1 IC50
Chain of CDK4/Cyclin D1 (P11802 whole entry): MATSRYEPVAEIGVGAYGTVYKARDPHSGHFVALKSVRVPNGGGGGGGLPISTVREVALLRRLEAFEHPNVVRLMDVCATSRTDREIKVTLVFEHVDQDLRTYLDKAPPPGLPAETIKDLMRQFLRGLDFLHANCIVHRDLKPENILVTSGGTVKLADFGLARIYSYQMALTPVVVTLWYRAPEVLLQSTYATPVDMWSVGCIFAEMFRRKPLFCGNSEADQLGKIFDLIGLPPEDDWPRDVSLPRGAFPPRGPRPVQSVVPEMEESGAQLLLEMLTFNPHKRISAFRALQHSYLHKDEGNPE
Chain of CDK4/Cyclin D1 (P24385 whole entry partner): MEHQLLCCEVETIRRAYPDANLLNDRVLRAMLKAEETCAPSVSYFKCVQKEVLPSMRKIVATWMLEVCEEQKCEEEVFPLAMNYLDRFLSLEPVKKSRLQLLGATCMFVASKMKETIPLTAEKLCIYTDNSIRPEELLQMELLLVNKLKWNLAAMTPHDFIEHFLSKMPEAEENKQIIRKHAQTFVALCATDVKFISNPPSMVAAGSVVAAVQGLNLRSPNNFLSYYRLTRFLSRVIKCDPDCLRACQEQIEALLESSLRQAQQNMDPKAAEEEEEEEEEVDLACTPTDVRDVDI
In short: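 Insect-cell CDK4/Cyclin D1 (1 nM) with ULight-4E-BP1 (100 nM) and 2 mM ATP in HEPES pH 7.4 buffer, preincubated 20 min with compound (9-dose, 3-fold dilutions); 10 mM MgCl2 started the reaction, run 60 min at 37 °C. EDTA/Eu-anti-phospho-4E-BP1 TR-FRET detection; IC50 from 4-parameter Hill fit.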

[1] = test system: MCF7 adenocarcinoma cell line; test: Cell proliferation studies in MCF7 cells (ATP-Lite, 10 days); assay type: cell-based; settings: Homo sapiens, 240 h, read-out: PROLIFERATION_CTG_MCF7 IC50
In short: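 Cells were seeded at 100 or 200 per well in DMEM with 10% FBS and dosed in quadruplicate over a 9-point 3-fold dilution. Incubation lasted 10 days at 37 °C, with media exchange and re-dosing on day 5. Viability was read by ATP-Lite luminescence and normalised to background and DMSO, giving IC50.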

[2] = Brain-to-plasma ratio (Kp) determination in Sprague-Dawley rats; settings: male, rat, brain (homogenate) versus plasma, po, 10 mg/kg
Description: The brain-to-plasma ratio (Kp) was determined in male Sprague-Dawley rats (7-9 weeks old) four hours after a single oral dose. Rats were acclimated and given free access to standard rodent chow and water throughout the entire study. Test articles were formulated as a solution at 0.3, 0.4, 0.5, or 1.0 mg/mL in a vehicle comprised of 10:15:75 (v:v:v) dimethylacetamide (DMA):Solutol HS15:water and delivered orally at a rate of 10 mL/kg to three rats to achieve final doses of 3, 4, 5, or 10 mg/kg, respectively. At 4 hours post-dose, blood samples were collected via jugular vein cannula into tubes containing K2EDTA as the anticoagulant and stored on ice. Blood samples were then centrifuged at 4° C. at 6000 rpm for 5 minutes, and the resulting plasma was placed into tubes and stored frozen at −80° C. until analysis. Whole brain samples were also collected at 4 hours post-dose. The weight of each brain was measured and recorded, and samples were immediately stored on dry ice. Brain samples were then transferred to storage at −80° C. until analysis.
Prior to analysis, brain samples were combined with water (4 mL/1 gram of brain) and homogenized. Prior to injection, plasma and brain homogenate samples and standards were prepared for analysis by precipitation with acetonitrile or 1:1 (v:v) methanol:acetonitrile. Samples were then thoroughly mixed, centrifuged at 4000 rpm for 15 minutes, and the resulting supernatant was transferred for analysis. Test article concentrations in plasma and brain homogenate were then determined by LC-MS/MS and quantified against calibration standards prepared to known concentrations in matched blank (analyte-free) biological matrix. The Kp was then determined by dividing the dilution-corrected brain concentration by the plasma concentration from each rat. A brain density of 1 gram/mL was assumed for all calculations.

Chain of CDK6/Cyclin D1 (Q00534 whole entry): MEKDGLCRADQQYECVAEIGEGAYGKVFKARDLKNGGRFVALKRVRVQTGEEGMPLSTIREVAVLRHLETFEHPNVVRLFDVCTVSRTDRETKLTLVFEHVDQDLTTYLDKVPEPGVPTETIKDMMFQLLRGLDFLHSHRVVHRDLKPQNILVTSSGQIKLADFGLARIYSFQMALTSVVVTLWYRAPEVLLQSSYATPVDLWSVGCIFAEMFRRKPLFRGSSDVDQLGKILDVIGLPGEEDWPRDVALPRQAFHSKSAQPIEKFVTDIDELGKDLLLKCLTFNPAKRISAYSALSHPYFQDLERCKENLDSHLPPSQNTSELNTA
Chain of CDK6/Cyclin D1 (P24385 whole entry partner): as the sequence (P24385 whole entry partner) above

IC50 (CDK6/Cyclin D1) [nM]	IC50 (CDK4/Cyclin D1) [nM]	IC50 [1] [nM]	Kp at 4 h [2]	Compound
≤ 20	≤ 20	20 to 200	1 to 3	CCN1CCN(Cc2ccc(Nc3ncc(F)c(-c4sc5c(ncn5C(C)C)c4C)n3)nc2)CC1 [Example 124, N-[5-[(4-Ethylpiperazin-1-yl)methyl]pyridin-2-yl]-5-fluoro-4-(6-methyl-3-propan-2-ylthieno[2,3-d]imidazol-5-yl)pyrimidin-2-amine]
≤ 20	≤ 20	≤ 20	1 to 3	CCN1CCC(c2ccc(Nc3ncc(F)c(-c4sc5c(ncn5C(C)C)c4C)n3)nc2)CC1 [Example 128, N-(5-(1-Ethylpiperidin-4-yl)pyridin-2-yl)-5-fluoro-4-(3-isopropyl-6-methyl-3H-thieno[2,3-d]imidazol-5-yl)pyrimidin-2-amine]
≤ 20	≤ 20	≤ 20	1 to 3	CCN1CC2(C1)CN(c1ccc(Nc3ncc(F)c(-c4cc5ncn(C(C)C)c5s4)n3)nc1)C2 [Example 129, N-(5-(6-ethyl-2,6-diazaspiro[3.3]heptan-2-yl)pyridin-2-yl)-5-fluoro-4-(3-isopropyl-3H-thieno[2,3-d]imidazol-5-yl)pyrimidin-2-amine]
20 to 200	≤ 20	20 to 200	1 to 3	Cc1c(-c2nc(Nc3ccc(C4CCCN(C)C4)cn3)ncc2Cl)sc2c1ncn2C(C)C (stereo not shown) [Example 130, 5-Chloro-4-(3-isopropyl-6-methyl-3H-thieno[2,3-d]imidazol-5-yl)-N-(5-(1-methylpiperidin-3-yl)pyridin-2-yl)pyrimidin-2-amine]
